In patent publication US20160120858A1 (ACADEMIA SINICA, priority 2014, published 2016):
Entries after “also recorded” stand apart in the source; their conditions may differ.

Columns and labels:
Tbr1^+/− mice = settings: reported by Huang et al. 2014; cited from earlier work
NMDAR [1] = experiment: NMDA-fEPSP extracellular recordings, hippocampal slices; assay type: cell-based, mouse; settings: for Effect on clioquinol-dependent increase in NMDAR activity (NMDA-fEPSPs): applied to hippocampal slices before clioquinol treatment
Method: (§1) For electrophysiological experiments, sagittal hippocampal slices (400 uM thick for extracellular, 300 uM thick for intracellular recordings) of Shank2^−/− mice (or ZnT3^−/− mice) and their wild-type littermates were prepared using a vibratome (Leica VT1200) in ice-cold dissection buffer containing (in mM) 212 sucrose, 25 NaHCO3, 5 KCl, 1.25 NaH2PO4, 0.5 CaCl2, 3.5 MgSO4, 10 D-glucose, 1.25 L-ascorbic acid, and 2 Na-pyruvate bubbled with 95% 02/5% CO2. CA3 was removed to prevent epileptiform activity. Slices were restored for 1 hour in 32° C. in a normal artificial CSF (ACSF) (In units of mM: 124 NaCl, 2.5 kCl, 1 NaH2PO4, 25 NaHCO3, 10 glucose, 2 CaC12, 2 Mg504 oxidized by 95% 02/5% CO2) For the recording, a single slice was moved to and maintained in submerged-type chamber at 28° C., continuously perfused with ACSF (2 mL/minute) saturated with 95% 02/5% CO2. Stimulation and recording pipettes were pulled from borosilicate glass capillaries (Harvard Apparatus) using a micropipette electrode puller (Narishege).
For extracellular recordings, mouse hippocampal slices at the age of postnatal day 21 to 35 were used. Field excitatory postsynaptic potentials (fEPSPs) were recorded in the stratum radiatum of the hippocampal CA1 region using pipettes filled with ACSF (1 MΩ). fEPSP was amplified (Multiclamp 700B, Molecular Devices), and digitized (Digidata 1440A, Molecular
Devices) for measurements. The Schaffer collateral pathway was stimulated every 20 seconds with pipettes filled with ACSF (0.3 to 0.5 MΩ). The stimulation intensity was adjusted to yield a half-maximal response, and three successive responses were averaged and expressed relative to the normalized baseline. To induce LTP, high frequency stimulation (100 Hz, 1 s) was applied after a stable baseline was acquired. […] To isolate NMDAR-mediated fEPSPs, ACSF containing 2 mM calcium, 0.1 mM magnesium, and 6,7-dinitroquinoxaline-2,3-dione (10 uM, DNQX, Tocris), which inhibits AMPAR-mediated EPSPs, were used.

NMDAR [2] = experiment: Simultaneous NMDA- and AMPA-eEPSCs at −40 mV, patch-clamp, hippocampal slices; assay type: cell-based, mouse; settings: for Effect on clioquinol-dependent increase in NMDA/AMPA ratio at −40 mV: WT and KO
Method: as §1
Whole-cell patch-clamp recordings of hippocampal CA1 pyramidal neurons were also made using a MultiClamp 700B amplifier (Molecular Devices) and Digidata 1440A (Molecular Devices). During whole-cell patch-clamp recordings, series resistance was monitored each sweep by measuring the peak amplitude of the capacitance currents in response to short hyperpolarizing step pulse (5 mV, 40 ms); only cells with a change in <25% were included in the analysis. For NMDA (N-Methyl-D-aspartate)/AMPA (alpha-amino-3-hydroxy-5-methylisoxazole-4-propionic acid) ratio experiments, mouse hippocampal slices at the age of postnatal day 17 to 25 were used. The recording pipettes (2.5 to 3.5 MΩ) were filled with an internal solution containing the following (in mM): 100 CsMeSO4, 10 TEA-Cl, 8 NaCl, 10 HEPES, 5 QX-314-C1, 2 Mg-ATP, 0.3 Na-GTP, 10 EGTA, with pH 7.25, 295 mOsm). CA1 pyramidal neurons were voltage-clamped at −70 mV, and EPSPs were evoked at every 15 sec. AMPAR-mediatedEPSCs were recorded at −70 mV, and 30 consecutive responses were recorded after stable baseline. After recording AMPAR-mediated EPSPs, holding potential was changed to +40 mV to record NMDA receptor-mediated EPSPs. NMDA component was measured at 60 ms after the stimulation. The NMDA/AMPA ratio was determined by dividing the mean value of 30 NMDA components of EPSPs by the mean value of 30 AMPAR-mediated EPSC peak amplitudes. […] For measuring AMPAR-mediated and NMDAR-mediated EPSCs together upon CQ treatment, pyramidal neurons were voltage-clamped at −40 mV, and EPSCs were evoked at every 15 sec. AMPAR-mediated EPSC was determined as a peak amplitude of EPSC, and NMDAR-mediated EPSC as a component at 60 ms after stimulation. NMDA/AMPA ratio at −40 mV was calculated by using both values, and monitored during the experimental process. […] Picrotoxin (100 uM) was always added to ACSF to block GABAA receptor-mediated currents.

N[C@@H]1CONC1=O [D-cycloserine]
Reduction in social interaction (Tbr1^+/− mice): normalized

CC(C)(C)n1nc(-c2ccc(Cl)cc2)c2c(N)ncnc21 [PP2]
Effect on clioquinol-dependent increase in NMDAR activity (NMDA-fEPSPs) (NMDAR [1]): removed clioquinol activation of NMDAR

NC(CCCP(=O)(O)O)C(=O)O (stereo not drawn) [AP5]
NMDA-eEPSCs at −40 mV (NMDAR [2]; D-AP5 50 uM, 10 minutes, after CQ): significantly reduced

CN(C)S(=O)(=O)c1ccc2c(c1)/C(=C/c1cc3c([nH]1)CCCC3)C(=O)N2 [SU6656]
Effect on clioquinol-dependent increase in NMDAR activity (NMDA-fEPSPs) (NMDAR [1]): removed clioquinol activation of NMDAR

Nc1ncnc2c1cnn2-c1ccccc1 [PP3]
Effect on clioquinol-dependent increase in NMDAR activity (NMDA-fEPSPs) (NMDAR [1]): failed to block the NMDAR activation

Src (40-58): Src-inhibitory peptide with a sequence corresponding to Src amino acid residues 40-58 (KPASADGHRGPSAAFAPAA; UniProt P12931 40-58, looked up, fragment)
Effect on clioquinol-dependent increase in NMDAR activity (NMDA-eEPSCs) (NMDAR [2]; peptide in the patch pipette, 0.03 mg/mL, Shank2^−/− and wild-type synapses): prevented clioquinol from increasing NMDAR activity | Effect on clioquinol-dependent increase in NMDA/AMPA ratio at −40 mV (NMDAR [2]; peptide in the patch pipette, 0.03 mg/mL): blocks CQ-dependent NMDAR activation | Effect on clioquinol-dependent increase in NMDA/AMPA ratio at −40 mV (NMDAR [2]; peptide in the patch pipette, 0.03 mg/mL, listed as Src-inhibitory peptide): blocked | AMPAR function (AMPA-eEPSCs) (NMDAR [2]; peptide in the patch pipette, wild-type and Shank2^−/− synapses): unaffected

O=C(NN=C1CCCCC1)C(=O)NN=C1CCCCC1 [cuprizone]
Effect on clioquinol-dependent increase in NMDAR activity (NMDA-fEPSPs) (NMDAR [1]): did not inhibit the clioquinol-induced increase in NMDAR activity

O=C([O-])CN(CCN(CC(=O)[O-])CC(=O)[O-])CC(=O)[O-].[Ca+2].[Na+].[Na+] [Ca-EDTA]
NMDAR function (NMDA-fEPSPs), substance alone (NMDAR [1]; Ca-EDTA 2 mM, during and after the treatment, WT and KO): did not affect NMDA-fEPSP; also recorded: has no effect on NMDAR function | Effect on clioquinol-dependent increase in NMDAR activity (NMDA-fEPSPs) (NMDAR [1]): eliminated the clioquinol-dependent increase in NMDAR activity
